We go through nine molecules from patent US20220151962A1, “NOVEL INHIBITORS OF HISTONE DEACETYLASE 10” (Deutsches Krebsforschungszentrum, priority 2019, published 2022).

The target of one assay is T1, HDAC1 (Homo sapiens, UniProt Q13547).
T1 construct: purchased BPS Bioscience 50051
The assay can be described thus: HDAC-Glo I/II assay, HDAC1. It is filed as biochemical. To be noted: recombinant human HDAC1, HDAC-Glo; read-out: pIC50 HDAC1 Glo (converted).

The next assay concerns the target T2, HDAC2 (Homo sapiens, UniProt Q92769).
T2 construct: purchased BPS Bioscience 50002
The assay can be described thus: HDAC-Glo I/II assay, HDAC2. The assay is classed as biochemical. The conditions noted are these: recombinant human HDAC2, HDAC-Glo; read-out: pIC50 HDAC2 Glo (converted).

In a further assay the target is T3, HDAC3/NcoR2 complex (Homo sapiens, UniProt O15379).
T3 construct: purchased BPS Bioscience 50003
T3 sequence (O15379 whole entry): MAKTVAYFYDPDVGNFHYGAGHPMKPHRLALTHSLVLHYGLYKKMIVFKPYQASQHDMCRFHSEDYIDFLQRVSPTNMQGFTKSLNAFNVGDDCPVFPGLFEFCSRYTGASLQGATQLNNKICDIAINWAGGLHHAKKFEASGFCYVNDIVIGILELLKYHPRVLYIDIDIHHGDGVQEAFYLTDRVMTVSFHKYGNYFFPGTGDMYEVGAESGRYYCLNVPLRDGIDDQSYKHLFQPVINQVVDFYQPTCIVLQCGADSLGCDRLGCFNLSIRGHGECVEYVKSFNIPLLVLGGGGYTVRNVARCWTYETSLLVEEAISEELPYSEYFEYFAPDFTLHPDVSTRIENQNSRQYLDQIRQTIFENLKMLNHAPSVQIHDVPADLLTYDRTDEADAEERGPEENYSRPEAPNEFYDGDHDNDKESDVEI
T3 sequence (Q9Y618 395-489 partner limits assumed): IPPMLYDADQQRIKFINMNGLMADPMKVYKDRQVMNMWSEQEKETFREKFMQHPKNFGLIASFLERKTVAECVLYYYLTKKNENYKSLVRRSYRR
Nature of the assay: HDAC-Glo I/II assay, HDAC3/NcoR2 complex. The conditions noted are these: recombinant human HDAC3/NcoR2 complex, read-out: pIC50 HDAC3 Glo (converted). The assay is classed as biochemical.

A further assay concerns the target T4, HDAC6 (Homo sapiens, UniProt Q9UBN7).
T4 construct: purchased BPS Bioscience 50006
T4 sequence (Q9UBN7 1-1215): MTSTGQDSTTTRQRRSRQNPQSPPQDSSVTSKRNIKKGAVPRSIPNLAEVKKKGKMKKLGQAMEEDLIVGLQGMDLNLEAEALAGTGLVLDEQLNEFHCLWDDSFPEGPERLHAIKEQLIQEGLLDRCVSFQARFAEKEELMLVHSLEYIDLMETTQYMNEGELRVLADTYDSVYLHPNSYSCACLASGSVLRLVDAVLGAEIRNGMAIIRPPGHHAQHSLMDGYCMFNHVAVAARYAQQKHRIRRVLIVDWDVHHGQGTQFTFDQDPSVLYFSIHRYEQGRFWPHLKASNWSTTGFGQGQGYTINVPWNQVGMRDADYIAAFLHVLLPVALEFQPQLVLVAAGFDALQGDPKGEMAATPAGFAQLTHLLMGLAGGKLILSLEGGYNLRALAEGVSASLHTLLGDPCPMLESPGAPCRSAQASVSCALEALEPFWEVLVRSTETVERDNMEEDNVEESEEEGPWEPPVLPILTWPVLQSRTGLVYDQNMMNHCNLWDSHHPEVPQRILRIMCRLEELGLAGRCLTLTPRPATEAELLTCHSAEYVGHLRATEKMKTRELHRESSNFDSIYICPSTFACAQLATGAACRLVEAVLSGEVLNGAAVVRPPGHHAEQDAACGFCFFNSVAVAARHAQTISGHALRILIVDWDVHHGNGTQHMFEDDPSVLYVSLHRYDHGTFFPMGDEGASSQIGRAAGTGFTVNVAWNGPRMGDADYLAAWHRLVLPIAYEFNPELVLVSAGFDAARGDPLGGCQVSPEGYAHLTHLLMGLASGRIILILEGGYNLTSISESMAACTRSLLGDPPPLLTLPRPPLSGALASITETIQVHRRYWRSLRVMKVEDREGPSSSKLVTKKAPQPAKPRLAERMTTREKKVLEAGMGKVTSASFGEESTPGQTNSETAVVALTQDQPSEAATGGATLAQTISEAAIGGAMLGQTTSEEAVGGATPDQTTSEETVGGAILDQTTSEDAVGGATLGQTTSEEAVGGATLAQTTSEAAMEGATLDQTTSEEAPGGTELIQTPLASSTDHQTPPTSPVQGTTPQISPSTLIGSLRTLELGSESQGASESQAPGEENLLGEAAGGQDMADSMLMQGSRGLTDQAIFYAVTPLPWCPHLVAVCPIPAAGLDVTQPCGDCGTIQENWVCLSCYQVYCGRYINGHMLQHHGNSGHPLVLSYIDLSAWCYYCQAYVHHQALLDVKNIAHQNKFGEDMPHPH
Nature of the assay: HDAC-Glo I/II assay, HDAC6. The assay is classed as biochemical. The conditions noted are these: recombinant human HDAC6, HDAC-Glo; read-out: pIC50 HDAC6 Glo (converted).

The next assay deals with T5, TwinStrep-GST-HDAC10 (Homo sapiens, UniProt Q969S8).
T5 construct: made in house; host or cells: Sf21 insect cells (baculovirus, pFastBac1)
T5 sequence (Q969S8 1-669): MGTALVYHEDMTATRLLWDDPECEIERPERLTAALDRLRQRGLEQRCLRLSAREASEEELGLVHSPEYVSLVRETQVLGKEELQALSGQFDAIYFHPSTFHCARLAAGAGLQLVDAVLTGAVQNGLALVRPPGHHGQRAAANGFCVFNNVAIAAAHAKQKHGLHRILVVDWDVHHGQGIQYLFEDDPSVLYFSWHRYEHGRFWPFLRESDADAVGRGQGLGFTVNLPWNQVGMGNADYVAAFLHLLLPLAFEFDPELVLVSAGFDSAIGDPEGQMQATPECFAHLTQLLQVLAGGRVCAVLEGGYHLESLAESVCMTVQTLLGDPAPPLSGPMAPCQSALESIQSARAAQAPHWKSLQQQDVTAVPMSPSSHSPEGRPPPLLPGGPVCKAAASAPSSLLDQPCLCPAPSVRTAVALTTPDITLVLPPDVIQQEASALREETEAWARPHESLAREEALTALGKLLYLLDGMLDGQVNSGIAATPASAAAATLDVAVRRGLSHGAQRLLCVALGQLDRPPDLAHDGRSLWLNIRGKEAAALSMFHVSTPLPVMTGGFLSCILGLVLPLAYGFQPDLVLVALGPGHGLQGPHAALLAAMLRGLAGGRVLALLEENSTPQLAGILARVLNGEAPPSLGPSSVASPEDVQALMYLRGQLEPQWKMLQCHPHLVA
Nature of the assay: HDAC10 TR-FRET assay (Tubastatin-AF647-Tracer displacement). It is filed as binding. To be noted: TR-FRET, 60 min at rt; read-out: pIC50 HDAC10 FRET (converted). (In general: In TR-FRET formats the signal depends on donor and acceptor labels being close together.)

Another assay concerns the target T6, HDAC8 (Homo sapiens, UniProt Q9BY41).
T6 sequence (Q9BY41 1-377): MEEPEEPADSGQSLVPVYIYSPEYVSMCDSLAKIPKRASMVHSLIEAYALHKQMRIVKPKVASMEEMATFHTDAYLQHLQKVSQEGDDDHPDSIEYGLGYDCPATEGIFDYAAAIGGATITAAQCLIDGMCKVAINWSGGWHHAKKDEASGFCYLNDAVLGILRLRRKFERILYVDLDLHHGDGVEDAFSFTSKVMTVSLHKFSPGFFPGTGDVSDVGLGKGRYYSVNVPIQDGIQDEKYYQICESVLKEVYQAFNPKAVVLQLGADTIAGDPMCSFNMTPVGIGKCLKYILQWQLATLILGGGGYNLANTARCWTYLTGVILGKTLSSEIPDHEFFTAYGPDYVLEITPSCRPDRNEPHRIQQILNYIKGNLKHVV
The assay can be described thus: HDAC-Glo I/II assay, HDAC8. The conditions noted are these: recombinant human HDAC8, HDAC-Glo; read-out: pIC50 HDAC8 Glo (converted). Also on record: purchased BPS Bioscience 50008. It is filed as biochemical.

Assay [1] has as its target T7, HDAC6 (2nd catalytic domain)-nanoluciferase fusion in HeLa cells (Homo sapiens, UniProt Q9UBN7).
T7 sequence (Q9UBN7 482-800 limits assumed): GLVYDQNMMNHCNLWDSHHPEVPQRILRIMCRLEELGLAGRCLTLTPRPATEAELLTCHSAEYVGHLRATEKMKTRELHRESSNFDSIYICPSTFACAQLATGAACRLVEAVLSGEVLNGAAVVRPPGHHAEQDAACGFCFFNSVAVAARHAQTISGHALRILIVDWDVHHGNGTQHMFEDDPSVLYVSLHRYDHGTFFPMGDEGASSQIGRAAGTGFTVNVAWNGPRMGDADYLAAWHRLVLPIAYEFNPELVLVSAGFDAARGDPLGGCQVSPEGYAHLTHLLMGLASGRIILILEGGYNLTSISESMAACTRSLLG
Nature of the assay: BRET intracellular target engagement assay, HDAC6. (In general: Bioluminescence resonance energy transfer reports proximity on the nanometre scale.)

The target in assay [2] is T8, HDAC10-nanoluciferase fusion in HeLa cells (Homo sapiens, UniProt Q969S8).
T8 sequence (Q969S8 1-669): T5 sequence (Q969S8 1-669)
The assay can be described thus: BRET intracellular target engagement assay, HDAC10. The conditions noted are these: for HDAC10/6 fold selectivity (BRET): HDAC10 over HDAC6, from BRET.

T2 sequence (Q92769 whole entry): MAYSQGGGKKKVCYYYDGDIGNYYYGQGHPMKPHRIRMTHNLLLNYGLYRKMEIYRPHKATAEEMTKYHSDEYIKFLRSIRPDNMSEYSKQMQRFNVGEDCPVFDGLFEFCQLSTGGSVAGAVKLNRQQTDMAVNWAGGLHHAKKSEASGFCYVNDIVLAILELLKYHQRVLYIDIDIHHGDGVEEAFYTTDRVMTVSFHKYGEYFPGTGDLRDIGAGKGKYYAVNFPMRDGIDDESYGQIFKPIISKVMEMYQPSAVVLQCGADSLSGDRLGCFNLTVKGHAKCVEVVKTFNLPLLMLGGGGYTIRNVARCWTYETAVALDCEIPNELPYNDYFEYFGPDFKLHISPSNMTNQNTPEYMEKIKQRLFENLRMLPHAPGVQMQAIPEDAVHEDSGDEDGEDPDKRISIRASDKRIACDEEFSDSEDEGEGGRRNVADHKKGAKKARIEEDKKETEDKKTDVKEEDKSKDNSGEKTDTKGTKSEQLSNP
T1 sequence (Q13547 whole entry): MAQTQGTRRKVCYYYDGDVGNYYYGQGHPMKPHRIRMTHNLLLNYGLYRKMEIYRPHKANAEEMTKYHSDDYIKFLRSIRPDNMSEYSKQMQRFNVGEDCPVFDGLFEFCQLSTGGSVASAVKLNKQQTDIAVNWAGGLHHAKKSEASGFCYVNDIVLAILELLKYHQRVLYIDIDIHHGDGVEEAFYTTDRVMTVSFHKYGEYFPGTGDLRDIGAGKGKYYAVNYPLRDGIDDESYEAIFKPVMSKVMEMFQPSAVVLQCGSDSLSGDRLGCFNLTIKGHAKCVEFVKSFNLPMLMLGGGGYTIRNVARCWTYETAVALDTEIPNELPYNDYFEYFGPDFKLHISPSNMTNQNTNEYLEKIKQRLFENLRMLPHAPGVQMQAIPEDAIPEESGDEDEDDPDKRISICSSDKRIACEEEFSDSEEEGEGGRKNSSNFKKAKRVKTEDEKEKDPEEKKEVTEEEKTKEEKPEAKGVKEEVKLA

As to `CC(C)N(CCCC(=O)NO)CCC(=O)Nc1ccccc1` [DKFZ-715, 4-(Isopropyl(3-oxo-3-(phenylamino)propyl)amino)-N-hydroxybutanamide], the IC50 at HDAC1 was 398 µM; at HDAC2, above 200 µM; at HDAC3/NcoR2 complex, below 200 µM; at HDAC6, 12.6 µM; at TwinStrep-GST-HDAC10 it was 0.631 µM; on HDAC8, 5.01 µM. In addition, the IC50 in assay [1] is above 39.8 µM; in assay [2], 2 µM. In addition, in assay [2], the “HDAC10/6 fold selectivity (BRET)” value is recorded as above 21 fold.
`CCCN(CCCC(=O)NO)CCC(=O)Nc1ccccc1` [DKFZ-716, 4-(Propyl(3-oxo-3-(phenylamino)propyl)amino)-N-hydroxybutanamide]: the IC50 at HDAC1 was 79.4 µM; on HDAC2, above 200 µM; on HDAC3/NcoR2 complex, around 200 µM; at HDAC6, 5.01 µM; at TwinStrep-GST-HDAC10, 0.316 µM; on HDAC8, 7.94 µM. Also, the IC50 in assay [1] is above 39.8 µM; in assay [2] it was 1 µM. Also, the “HDAC10/6 fold selectivity (BRET)” value in assay [2] is given as around 366 fold.
Take `CCCCN(CCCC(=O)NO)CCC(=O)Nc1ccccc1` [DKFZ-717, 4-(Butyl(3-oxo-3-(phenylamino)propyl)amino)-N-hydroxybutanamide]: the IC50 on HDAC1 is 79.4 µM; on HDAC2, above 200 µM; on HDAC3/NcoR2 complex, around 200 µM; on HDAC6, 5.01 µM; on TwinStrep-GST-HDAC10, 0.631 µM; on HDAC8 it was 7.94 µM. Besides, the IC50 in assay [1] is above 39.8 µM; in assay [2] it was 1.58 µM. In addition, the “HDAC10/6 fold selectivity (BRET)” value in assay [2] was 38 fold.
With `O=C(CCCN(CCC(=O)Nc1ccccc1)Cc1ccccc1)NO` [DKFZ-718, 4-(Benzyl(3-oxo-3-(phenylamino)propyl)amino)-N-hydroxybutanamide], the IC50 is 25.1 µM on HDAC1; around 126 µM at HDAC2; around 100 µM at HDAC3/NcoR2 complex; 1 µM at HDAC6; 2 µM on TwinStrep-GST-HDAC10; 2.51 µM at HDAC8. Moreover, the IC50 was 10 µM in assay [1] and 0.501 µM in assay [2]. Moreover, the “HDAC10/6 fold selectivity (BRET)” value in assay [2] is recorded as 25 fold.
In the case of `O=C(CCCN(CCC(=O)Nc1ccccc1)C1CC1)NO` [DKFZ-724, 4-(Cyclopropyl(3-oxo-3-(phenylamino)propyl)amino)-N-hydroxybutanamide], the IC50 on HDAC1 is 39.8 µM; on HDAC2, above 200 µM; at HDAC3/NcoR2 complex, 126 µM; at HDAC6, 3.16 µM; on TwinStrep-GST-HDAC10, 0.251 µM; at HDAC8, 2 µM. Moreover, the results for the IC50 in assay [1] and in assay [2] were above 39.8 µM and 0.398 µM, respectively. Moreover, in assay [2], the “HDAC10/6 fold selectivity (BRET)” value was above 110 fold.
Consider `CN(CCCC(=O)NO)CCNC(=O)c1ccc(/C(N)=N/O)cc1` [DKFZ-750, N-(2-((4-(Hydroxyamino)-4-oxobutyl)(methyl)amino)ethyl)-4-(M-hydroxycarbamimidoyl)benzamide], for which the IC50 at HDAC1 is 15.8 µM; at HDAC2 it was above 100 µM; at HDAC3/NcoR2 complex it was above 100 µM; on HDAC6, 6.31 µM; on TwinStrep-GST-HDAC10, 0.02 µM; on HDAC8, around 25.1 µM. Further, the IC50 in assay [1] is above 39.8 µM; in assay [2], 2 µM. In addition, the “HDAC10/6 fold selectivity (BRET)” value in assay [2] was above 21 fold.
With `CN(CCCC(=O)NO)CCNC(=O)c1cccc2cn[nH]c12` [DKFZ-757, N-(2-((4-(Hydroxyamino)-4-oxobutyl)(methyl)amino)ethyl)-1H-indazole-7-carboxamide], the IC50 on HDAC1 is 10 µM; at HDAC2 it was above 100 µM; at HDAC3/NcoR2 complex, above 100 µM; at HDAC6, 6.31 µM; on TwinStrep-GST-HDAC10 it was 0.00794 µM; at HDAC8, around 25.1 µM. Also, the IC50 is 25.1 µM in assay [1] and 0.0631 µM in assay [2]. Besides, the “HDAC10/6 fold selectivity (BRET)” value in assay [2] amounted to 423 fold.
As to `CN(CCCC(=O)NO)CCNC(=O)c1c2ccccc2cc2ccccc12` [DKFZ-771, N-(2-((4-(Hydroxyamino)-4-oxobutyl)(methyl)amino)ethyl)anthracene-9-carboxamide], the IC50 at HDAC1 is 2 µM; on HDAC2 it was 3.98 µM; at HDAC6, 0.631 µM; on HDAC8, 0.794 µM; in assay [1], 3.98 µM.
Turning to `CN(CCCC(=O)NO)CCCC(=O)Nc1ccccc1` [DKFZ-775, N-Hydroxy-4-(methyl(4-oxo-4-(phenylamino)butyl)amino)butanamide], the IC50 on HDAC1 is 50.1 µM; on HDAC3/NcoR2 complex it was above 100 µM; on HDAC6 it was 12.6 µM; at HDAC8 it was 25.1 µM; in assay [1] it was above 39.8 µM.
